# Results: PMC4167698, “Fatty Acid Esters of Phloridzin Induce Apoptosis of Human Liver Cancer Cells through Altered Gene Expression” (PLoS ONE, 2014)
# Columns and labels:
# HepG2 cells [1] = experiment: DNA fragmentation (apoptotic DNA ladder); assay type: cell-based, human; conditions: HepG2, 100 µM, 24 h, agarose gel
# Procedure: HepG2 (1×10^5) cells were seeded in 24-well culture plates and were allowed to adhere overnight. […] The plates were re-incubated for another 24 h. DNA fragmentation was detected using ApoTarget Quick Apoptotic DNA Ladder Detection Kit (Invitrogen, Burlington, ON, Canada) according to the manufacturer’s protocol. The principle involves detecting the internucleosomal DNA fragments formed during apoptosis. Briefly, floating dead cells and trypsinized adherent cells were collected and centrifuged at 1,000 rpm for 10 min. After washing with diluted phosphate buffered saline, the cells were lysed with 35 µL TE lysis buffer (a kit component). To the lysate, 5 µL of Enzyme A (a kit component) was added and incubated at 37°C for 10 min. Afterwards, 5 µL of Enzyme B (a kit component) was added, gently mixed and incubated at 50°C for 30 min. The DNA was precipitated with the ammonium acetate and absolute ethanol at −20°C. After centrifugation (10 min at 12,000 rpm) and air drying, the DNA pellet was dissolved in 30 µL of DNA suspension buffer. For detecting the DNA ladder, the extracted DNA samples were run on a 1.2% agarose gel containing 0.5 µg/mL gel red in Tris-Borate-EDTA (TBE) buffer. After electrophoresis, the gel image was captured using Gel Doc 100 system (Bio-Rad, Mississauga, ON, Canada).
# MDA-MB-231 cells = experiment: MTS cell proliferation assay, MDA-MB-231; assay type: cell-based, human; conditions: Homo sapiens, MTS
# Procedure: (§1) Cell viability was determined by using the MTS assay. In brief, HepG2 cells (5×10^3 cells/100 µL/well), MDA-MB-231 (5×10^3 cells/100 µL/well), THP-1 (25×10^3/100 µL/well), normal human and rat hepatocytes (1×10^4 cells/100 µL/well) were plated in triplicate, in a 96 well sterile flat bottom tissue culture plates. […] Thereby, cells were exposed to various concentrations (0.1, 1, 10, 25, 50, 75, 100 µM) of each treatment. Controls consist of cells with media containing DMSO (<0.5%), test blank wells contained the test compound in media with no cells and blank wells contained media with no cells. After additional 3, 6, 12, 18 or 24 h, 20 µL of the MTS reagent in combination with the electron coupling agent, phenazine methosulfate were added to the wells and cells were incubated in a humidified incubator for 3 h. Absorbance at 490 nm (OD490) was measured by using a Flurostar Optima microplate reader (BMG Labtech, Cary, NC, USA) to obtain the number of viable cells relative to the control population. Percentage of viability of the test compound treated cells are expressed as percentage compared to control (<0.5% DMSO). […] The selective index (SI) of the fatty acid esters of phloridzin is defined as the ratio of cytotoxicity (EC50 values) on normal HP-F cells to solid cancer HepG2, MDA-MB-231 cells (SI = EC50 on HP-F cells/EC50 on solid cancer cells). Samples with SI values greater than three were considered to have high selectivity towards cancer cells.
# THP-1 cells = experiment: MTS cell proliferation assay, THP-1; assay type: cell-based, human; conditions: Homo sapiens, MTS
# Procedure: as §1
# human DNA topo IIα = target: T1, human DNA topo IIα (Homo sapiens, UniProt P11388); experiment: Topoisomerase IIα catalytic activity (pHOT1 DNA relaxation); assay type: biochemical; conditions: 100 µM, 4 units enzyme, 37°C 30 min
# T1 construct: purchased TopoGEN, Inc., Columbus, OH, USA
# Procedure: The topo IIα catalytic activity was monitored via electrophoresis using topoisomerase II drug screening kit (TopoGEN, Inc., Columbus, OH, USA). Briefly, 20 µL of reaction mixtures contained 0.5 M Tris-HCl, pH 8.0, 1.5 M NaCl, 100 mM MgCl2, 20 mM ATP, 300 µg BSA/mL and 5 mM dithiothreitol. Supercoiled DNA (pHOT1 DNA), supercoiled provided in the kit was determined to be ideal for this assay because it is small and easy to handle and has a large number of topo IIα recognition elements. […] The reaction was terminated by adding 2 µL of 10% sodium dodecyl sulfate (SDS) followed by digestion with 2 µL of proteinase K (50 µg/mL) at 37°C for 15 min to degrade enzyme. After adding 2 µL of loading buffer (0.25% bromophenol blue and 50% glycerol) was added to the mixture, samples were loaded onto 1% agarose gel. Electrophoresis was conducted at 66 V (2 V/cm) for 5 h in TBE buffer using Biorad Electrophoretic Gel System (Bio-Rad, Hercules, CA, USA). Supercoiled DNA (pHOT1 DNA) and relaxed DNA were included in the electrophoresis run as markers for DNA topology. Gels were then stained in 0.5 µg/mL gel red in TBE for 30 min and destained for 15 min in distilled water prior to digital image acquisition using Gel Doc 100 system (Bio-Rad, Hercules, CA, USA).
# One unit of topoisomerase II activity was defined as the minimum amount of enzyme required to achieve complete relaxation of […] superhelical pHOT1 DNA in 30 min at 37°C. […] The percent of inhibition was calculated by the following formula: [drawing 1] Where Scontrol is the percent of supercoiled DNA in the control lane (without enzyme and test compounds), S0 is the percent of supercoiled DNA in the lane without test compounds and S is the percent of supercoiled DNA in the lane with test compounds and enzyme.
# HepG2 cells [2] = experiment: Annexin V/7-AAD apoptosis/necrosis fluorescence microscopy; assay type: cell-based, human; conditions: HepG2, 100 µM, 24 h
# Procedure: HepG2 cells were seeded into Nunc Lab-Tek two chamber slide (Sigma-Aldrich Canada) at a density of 1×10^6 cells/chamber. […] The slides were washed with diluted phosphate buffered saline. After removing the chamber, each slide was added with 50 µL of Dual Detection Reagent containing apoptosis detection reagent (Annexin V-EnzoGold) and necrosis detection reagent (7-AAD) in 1X binding buffer. The samples were incubated at room temperature for 15 min in the dark. After staining, the cells were washed with binding buffer and covered with a glass coverslip. The stained cells were observed under a fluorescence Zeiss Axiovert 200 m inverted microscope (Carl Zeiss, Toronto, ON, Canada) at magnification of ×40 with a filter set for Annexin V-EnzoGold (Ex/Em: 550/570 nm) and 7-AAD (Ex/Em: 546/647 nm).
# [3] = system: caspase 3 activity of HepG2 cells; experiment: Caspase-3 colorimetric activity assay; assay type: cell-based, human; conditions: HepG2, 100 µM, 24 h, compared to DMSO control
# Procedure: The activity of caspase 3 enzyme was measured using caspase 3 colorimetric assay kit purchased from Sigma-Aldrich. […] Cells were lysed and the protein content of cell lysate was quantified by the BCA protein assay (Thermo Fisher Scientific Inc., Ottawa, ON, Canada). Caspase-3 activity was measured in the 200 µg of cell lysate using the caspase-specific peptide substrate, DEVD (Asp-Glu-Val-Asp), conjugated to reporter p-nitroanaline (ρ-NA) molecules.
# T1 sequence (P11388 whole entry): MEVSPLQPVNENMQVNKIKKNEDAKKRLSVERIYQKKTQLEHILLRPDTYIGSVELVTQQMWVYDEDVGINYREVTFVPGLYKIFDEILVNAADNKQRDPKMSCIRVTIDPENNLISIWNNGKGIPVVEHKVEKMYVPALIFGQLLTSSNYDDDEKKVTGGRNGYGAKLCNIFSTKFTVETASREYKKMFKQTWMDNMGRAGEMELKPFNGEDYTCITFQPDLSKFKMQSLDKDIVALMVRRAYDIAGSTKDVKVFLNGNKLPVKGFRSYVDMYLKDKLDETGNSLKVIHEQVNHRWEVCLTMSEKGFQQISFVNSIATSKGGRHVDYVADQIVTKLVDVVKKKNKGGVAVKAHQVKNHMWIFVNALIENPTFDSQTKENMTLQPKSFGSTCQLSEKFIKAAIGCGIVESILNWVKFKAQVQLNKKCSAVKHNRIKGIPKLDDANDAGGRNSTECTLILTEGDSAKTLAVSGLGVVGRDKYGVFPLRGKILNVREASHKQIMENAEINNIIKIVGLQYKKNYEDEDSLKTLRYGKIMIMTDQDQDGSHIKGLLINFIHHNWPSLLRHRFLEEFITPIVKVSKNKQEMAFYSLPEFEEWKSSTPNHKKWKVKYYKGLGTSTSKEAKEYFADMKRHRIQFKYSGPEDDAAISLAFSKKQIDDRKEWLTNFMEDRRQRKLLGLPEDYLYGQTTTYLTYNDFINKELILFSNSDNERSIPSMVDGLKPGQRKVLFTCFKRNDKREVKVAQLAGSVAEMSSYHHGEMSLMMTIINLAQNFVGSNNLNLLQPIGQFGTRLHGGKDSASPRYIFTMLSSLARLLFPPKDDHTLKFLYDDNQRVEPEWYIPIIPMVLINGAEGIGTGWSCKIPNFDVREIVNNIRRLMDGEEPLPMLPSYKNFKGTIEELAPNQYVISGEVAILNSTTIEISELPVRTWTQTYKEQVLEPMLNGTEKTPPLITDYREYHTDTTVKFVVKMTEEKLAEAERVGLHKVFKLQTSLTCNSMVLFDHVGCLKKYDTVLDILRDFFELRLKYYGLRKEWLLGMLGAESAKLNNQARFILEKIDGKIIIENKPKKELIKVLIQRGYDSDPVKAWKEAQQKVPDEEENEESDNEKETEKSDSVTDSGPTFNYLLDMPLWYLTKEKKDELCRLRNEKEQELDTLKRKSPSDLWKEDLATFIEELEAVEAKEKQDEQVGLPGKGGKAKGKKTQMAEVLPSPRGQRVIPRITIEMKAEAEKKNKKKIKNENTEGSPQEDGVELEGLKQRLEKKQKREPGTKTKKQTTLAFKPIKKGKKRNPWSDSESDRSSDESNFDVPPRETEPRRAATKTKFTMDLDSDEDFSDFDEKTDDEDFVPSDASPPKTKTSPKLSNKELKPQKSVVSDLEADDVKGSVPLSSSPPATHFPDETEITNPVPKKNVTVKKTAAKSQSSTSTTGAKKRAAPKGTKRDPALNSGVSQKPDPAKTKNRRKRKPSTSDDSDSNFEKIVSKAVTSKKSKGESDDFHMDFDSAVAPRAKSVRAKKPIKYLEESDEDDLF
SMILES,internucleosomal DNA fragmentation (HepG2 cells [1]),"EC50 (MDA-MB-231 cells; MDA-MB-231, 3 h) [µM]","EC50 (MDA-MB-231 cells; MDA-MB-231, 6 h) [µM]","EC50 (MDA-MB-231 cells; MDA-MB-231, 12 h) [µM]","EC50 (MDA-MB-231 cells; MDA-MB-231, 18 h) [µM]","EC50 (MDA-MB-231 cells; MDA-MB-231, 24 h) [µM]","EC50 (THP-1 cells; THP-1, 3 h) [µM]","EC50 (THP-1 cells; THP-1, 6 h) [µM]","EC50 (THP-1 cells; THP-1, 12 h) [µM]","EC50 (THP-1 cells; THP-1, 18 h) [µM]","EC50 (THP-1 cells; THP-1, 24 h) [µM]",catalytic activity of human DNA topo IIα (pHOT DNA relaxation) (human DNA topo IIα),apoptosis/necrosis by Annexin V/7-AAD staining (HepG2 cells [2]),caspase 3 activity [3]
O=C(CCc1ccc(O)cc1)c1c(O)cc(O)cc1O [Phloretin],only intact genomic DNA,> 100,> 100,> 100,> 100,> 100,73.5 ± 5.2,64.1 ± 5.4,60.1 ± 4.2,56.9 ± 3,39.6 ± 1.7,inhibited catalytic activity,less apoptotic death of cells,enhanced caspase 3 activity but significantly (P<0.001) lower than fatty acid esters of phloridzin or the drug
"O=C(CCc1ccc(O)cc1)c1c(O)cc(O)cc1O[C@@H]1O[C@H](CO)[C@@H](O)[C@H](O)[C@H]1O [Phloridzin, phloretin 2′-O-glucoside]",only intact genomic DNA,> 100,> 100,> 100,> 100,> 100,> 100,> 100,> 100,> 100,> 100,inhibited catalytic activity,less apoptotic death of cells,enhanced caspase 3 activity but significantly (P<0.001) lower than fatty acid esters of phloridzin or the drug
